Results reported in ChEMBL document CHEMBL1201862, “PubChem BioAssay data set” (2004).
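Five compound concentrations were applied to cells in 96-well plates for 48 hours; endpoints were derived by simple linear interpolation of the resulting dose-response curve. GI50 marks 50% less growth.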 The source made the active and inactive calls. No stated cut-off is given here; in the data, active = GI50 up to about 1.1 µM and inactive = higher.

Assays:
Experiment in all cases: inhibition of tumour cell growth, NCI panel, 48 h
EKVX = system: EKVX
M14 = system: M14
CCRF-CEM = system: CCRF-CEM
SF-268 = system: SF-268
MDA-MB-435 = system: MDA-MB-435
UO-31 = system: UO-31
CAKI-1 = system: CAKI-1
SW-620 = system: SW-620
PC-3 = system: PC-3
A498 = system: A498
K562 = system: K562
NCI-H460 = system: NCI-H460
ACHN = system: ACHN
NCI/ADR-RES = system: NCI/ADR-RES
SN12C = system: SN12C
MCF7 = system: MCF7
NCI-H23 = system: NCI-H23
HCT-116 = system: HCT-116
COLO 205 = system: COLO 205
T47D = system: T47D
RXF 393 = system: RXF 393
HL-60 = system: HL-60
U-251 = system: U-251
SK-MEL-5 = system: SK-MEL-5
TK-10 = system: TK-10
HT-29 = system: HT-29
MDA-N = system: MDA-N
MOLT-4 = system: MOLT-4
OVCAR-4 = system: OVCAR-4
SNB-75 = system: SNB-75
HCC 2998 = system: HCC 2998
BT-549 = system: BT-549
HOP-92 = system: HOP-92
NCI-H226 = system: NCI-H226
Malme-3M = system: Malme-3M
SK-OV-3 = system: SK-OV-3
SNB-19 = system: SNB-19
OVCAR-3 = system: OVCAR-3
Hs-578T = system: Hs-578T
SK-MEL-28 = system: SK-MEL-28
SR = system: SR
UACC-62 = system: UACC-62
RPMI-8226 = system: RPMI-8226
IGROV-1 = system: IGROV-1
HOP-62 = system: HOP-62
KM12 = system: KM12
HCT-15 = system: HCT-15
NCI-H522 = system: NCI-H522
OVCAR-5 = system: OVCAR-5
MDA-MB-231 = system: MDA-MB-231
DU-145 = system: DU-145
LOX IMVI = system: LOX IMVI
OVCAR-8 = system: OVCAR-8
786-0 = system: 786-0
SF-295 = system: SF-295
UACC-257 = system: UACC-257
A549 = system: A549
SK-MEL-2 = system: SK-MEL-2
SF-539 = system: SF-539

Cc1cn(C2CC(N)C(C(=O)NCC(=O)O)O2)c(=O)[nH]c1=O (configuration not stated)
GI50 (EKVX): > 100 µM (inactive)
GI50 (M14): > 100 µM (inactive)
GI50 (CCRF-CEM): > 100 µM (inactive)
GI50 (SF-268): > 100 µM (inactive)
GI50 (MDA-MB-435): > 100 µM (inactive)
GI50 (UO-31): > 100 µM (inactive)
GI50 (CAKI-1): > 100 µM (inactive)
GI50 (SW-620): > 100 µM (inactive)
GI50 (PC-3): > 100 µM (inactive)
GI50 (A498): 50.6 µM (inactive)
GI50 (K562): 95.3 µM (inactive)
GI50 (NCI-H460): > 100 µM (inactive)
GI50 (ACHN): > 100 µM (inactive)
GI50 (NCI/ADR-RES): > 100 µM (inactive)
GI50 (SN12C): > 100 µM (inactive)
GI50 (MCF7): > 100 µM (inactive)
GI50 (NCI-H23): > 100 µM (inactive)
GI50 (HCT-116): > 100 µM (inactive)
GI50 (COLO 205): > 100 µM (inactive)
GI50 (T47D): > 100 µM (inactive)
GI50 (RXF 393): > 100 µM (inactive)
GI50 (HL-60): > 100 µM (inactive)
GI50 (U-251): > 100 µM (inactive)
GI50 (SK-MEL-5): > 100 µM (inactive)
GI50 (TK-10): > 100 µM (inactive)
GI50 (HT-29): > 100 µM (inactive)
GI50 (MDA-N): > 100 µM (inactive)
GI50 (MOLT-4): > 100 µM (inactive)
GI50 (OVCAR-4): > 100 µM (inactive)
GI50 (SNB-75): > 100 µM (inactive)
GI50 (HCC 2998): > 100 µM (inactive)
GI50 (BT-549): > 100 µM (inactive)
GI50 (HOP-92): > 100 µM (inactive)
GI50 (NCI-H226): > 100 µM (inactive)
GI50 (Malme-3M): > 100 µM (inactive)
GI50 (SK-OV-3): > 100 µM (inactive)
GI50 (SNB-19): > 100 µM (inactive)
GI50 (OVCAR-3): > 100 µM (inactive)
GI50 (Hs-578T): > 100 µM (inactive)
GI50 (SK-MEL-28): > 100 µM (inactive)
GI50 (SR): > 100 µM (inactive)
GI50 (UACC-62): > 100 µM (inactive)
GI50 (RPMI-8226): > 100 µM (inactive)
GI50 (IGROV-1): > 100 µM (inactive)
GI50 (HOP-62): > 100 µM (inactive)
GI50 (KM12): > 100 µM (inactive)
GI50 (HCT-15): > 100 µM
GI50 (NCI-H522): > 100 µM (inactive)
GI50 (OVCAR-5): > 100 µM (inactive)
GI50 (MDA-MB-231): > 100 µM (inactive)
GI50 (DU-145): > 100 µM (inactive)
GI50 (LOX IMVI): > 100 µM (inactive)

CC(C)=CCc1[nH]c2ccccc2c1C1=C(O)C(=O)C(c2c(CC=C(C)C)[nH]c3ccccc23)=C(O)C1=O
GI50 (EKVX): 2.19 µM (inactive)
GI50 (M14): 3.24 µM (inactive)
GI50 (CCRF-CEM): 1.03 µM (active)
GI50 (SF-268): 0.409 µM (active)
GI50 (MDA-MB-435): 0.608 µM (active)
GI50 (UO-31): 1.49 µM (inactive)
GI50 (OVCAR-8): 1.53 µM (inactive)
GI50 (CAKI-1): 1.73 µM (inactive)
GI50 (SW-620): 3.27 µM (inactive)
GI50 (PC-3): 1.83 µM (inactive)
GI50 (A498): 1.21 µM (inactive)
GI50 (K562): 0.989 µM (active)
GI50 (NCI-H460): 1.34 µM (inactive)
GI50 (ACHN): 1.56 µM (inactive)
GI50 (786-0): 1.56 µM (inactive)
GI50 (NCI/ADR-RES): 2.7 µM (inactive)
GI50 (SF-295): 1.03 µM (active)
GI50 (SN12C): 1.26 µM (inactive)
GI50 (MCF7): 2.26 µM (inactive)
GI50 (NCI-H23): 1.91 µM (inactive)
GI50 (HCT-116): 1.5 µM (inactive)
GI50 (COLO 205): 1.63 µM (inactive)
GI50 (T47D): 2.76 µM (inactive)
GI50 (RXF 393): 1.75 µM (inactive)
GI50 (HL-60): 2.19 µM (inactive)
GI50 (U-251): 0.587 µM (active)
GI50 (SK-MEL-5): 1.76 µM (inactive)
GI50 (HT-29): 2.22 µM (inactive)
GI50 (MDA-N): 1.04 µM (active)
GI50 (MOLT-4): 1.96 µM (inactive)
GI50 (OVCAR-4): 3.58 µM (inactive)
GI50 (SNB-75): 0.604 µM (active)
GI50 (HCC 2998): 1.01 µM (active)
GI50 (BT-549): 0.419 µM (active)
GI50 (UACC-257): 2.12 µM (inactive)
GI50 (HOP-92): 1.12 µM (inactive)
GI50 (NCI-H226): 1.73 µM (inactive)
GI50 (Malme-3M): 0.628 µM (active)
GI50 (SK-OV-3): 2.11 µM (inactive)
GI50 (SNB-19): 2.03 µM (inactive)
GI50 (OVCAR-3): 1.48 µM (inactive)
GI50 (Hs-578T): 1.04 µM (active)
GI50 (SK-MEL-28): 0.757 µM (active)
GI50 (A549): 0.587 µM (active)
GI50 (SR): 1.17 µM (inactive)
GI50 (UACC-62): 0.377 µM (active)
GI50 (RPMI-8226): 2.3 µM (inactive)
GI50 (IGROV-1): 0.573 µM (active)
GI50 (HOP-62): 0.815 µM (active)
GI50 (KM12): 1.04 µM (active)
GI50 (HCT-15): 1.33 µM
GI50 (NCI-H522): 2.2 µM (inactive)
GI50 (OVCAR-5): 2.89 µM (inactive)
GI50 (MDA-MB-231): 1.28 µM (inactive)
GI50 (DU-145): 2.39 µM (inactive)
GI50 (LOX IMVI): 1.43 µM (inactive)
GI50 (SK-MEL-2): 1.64 µM (inactive)

CC(=O)O[C@H]1C[C@H]2[C@@H]([C@H](OC(C)=O)C[C@@H]3CC4(CC[C@@]32C)OOC2(CCCCC2)OO4)[C@@H]2CC[C@H]([C@H](C)CCC(=O)O)[C@@]12C
GI50 (EKVX): 1.95 µM (inactive)
GI50 (M14): 12 µM (inactive)
GI50 (CCRF-CEM): 2.33 µM (inactive)
GI50 (SF-268): 6.81 µM (inactive)
GI50 (MDA-MB-435): 5.75 µM (inactive)
GI50 (UO-31): 3.28 µM (inactive)
GI50 (OVCAR-8): 4.08 µM (inactive)
GI50 (CAKI-1): 7.1 µM (inactive)
GI50 (SW-620): 10.2 µM (inactive)
GI50 (PC-3): 7.24 µM (inactive)
GI50 (A498): 13.3 µM (inactive)
GI50 (K562): 5.57 µM (inactive)
GI50 (NCI-H460): 4.43 µM (inactive)
GI50 (ACHN): 7.24 µM (inactive)
GI50 (786-0): 11.3 µM (inactive)
GI50 (NCI/ADR-RES): 4.88 µM (inactive)
GI50 (SF-295): 5.93 µM (inactive)
GI50 (SN12C): 6.81 µM (inactive)
GI50 (MCF7): 4.65 µM (inactive)
GI50 (NCI-H23): 4.13 µM (inactive)
GI50 (HCT-116): 5.81 µM (inactive)
GI50 (COLO 205): 3.91 µM (inactive)
GI50 (T47D): 7 µM (inactive)
GI50 (RXF 393): 13.5 µM (inactive)
GI50 (HL-60): 4.15 µM (inactive)
GI50 (U-251): 4.52 µM (inactive)
GI50 (SK-MEL-5): 10.6 µM (inactive)
GI50 (TK-10): 12.4 µM (inactive)
GI50 (SF-539): 7.85 µM (inactive)
GI50 (HT-29): 11.5 µM (inactive)
GI50 (MDA-N): 8.75 µM (inactive)
GI50 (MOLT-4): 9.02 µM (inactive)
GI50 (OVCAR-4): 2.55 µM (inactive)
GI50 (SNB-75): 3.61 µM (inactive)
GI50 (HCC 2998): 12 µM (inactive)
GI50 (BT-549): 4.24 µM (inactive)
GI50 (UACC-257): 11.4 µM (inactive)
GI50 (HOP-92): 1.98 µM (inactive)
GI50 (NCI-H226): 7.29 µM (inactive)
GI50 (Malme-3M): 16.4 µM (inactive)
GI50 (SK-OV-3): 13.7 µM (inactive)
GI50 (SNB-19): 6.71 µM (inactive)
GI50 (OVCAR-3): 13.9 µM (inactive)
GI50 (Hs-578T): 2.42 µM (inactive)
GI50 (SK-MEL-28): 11.4 µM (inactive)
GI50 (A549): 2.66 µM (inactive)
GI50 (SR): 2.44 µM (inactive)
GI50 (RPMI-8226): 3.46 µM (inactive)
GI50 (IGROV-1): 1.87 µM (inactive)
GI50 (HOP-62): 2.45 µM (inactive)
GI50 (KM12): 3.56 µM (inactive)
GI50 (HCT-15): 4.39 µM
GI50 (NCI-H522): 3.24 µM (inactive)
GI50 (OVCAR-5): 10.7 µM (inactive)
GI50 (MDA-MB-231): 14.1 µM (inactive)
GI50 (DU-145): 10.4 µM (inactive)
GI50 (LOX IMVI): 3.48 µM (inactive)
GI50 (SK-MEL-2): 13.1 µM (inactive)
